Experiments:
[1] = tested on: human T cell lines primed with recombinant Can f I; assay: Secondary human T cell proliferation assay (3H thymidine incorporation); assay type: cell-based; conditions: for percentage of positive responders (T cell stimulation index of at least two): tested dog allergic individuals
Excerpt: In one embodiment, peptides which have Can f I or Can f II T cell stimulating activity (i.e., the peptide comprises at least one T cell epitope) can be identified using an algorithm which predicts the presence of T cell epitopes in a protein sequence, such as the algorithm described by Hill et al., Journal of Immunology, 147:189-197 (1991). The algorithm of Hill et al. predicts the location of T cell epitopes in a protein by the presence of certain patterns within the sequence which are likely to bind MHC and therefore may contain T cell epitopes. Based on the Hill et al. algorithm, two 13 amino acid peptides (discussed in Example 10) have been identified and produced synthetically. Such peptides were tested for T cell activity as described above (e.g., by measuring cellular uptake of tritiated thymidine). Specifically, in Example 10, human T cell stimulating activity was tested by culturing T cells obtained from an individual sensitive to Can f I (i.e., an individual who has an IgE mediated immune response to Can f I) with a peptide derived from Can f I and proliferation of T cells in response to the peptide was determined, e.g., by measuring cellular uptake of tritiated thymidine. Stimulation indices for responses by T cells to peptides were calculated as the maximum CPM in response to a peptide divided by the control CPM. A stimulation index (S.I.) equal to or greater than two times the background level was considered “positive”. Positive results were used to calculate the mean stimulation index for each peptide for the group of patients tested (See FIG. 25). Preferred peptides of this invention comprise at least one T cell epitope and have a mean T cell stimulation index of greater than or equal to 2.0. A peptide having a mean T cell stimulation index of greater than or equal to 2.0 in a significant number of dog dander allergen sensitive patients tested is considered useful as a therapeutic agent. Preferred peptides have a mean T cell stimulation index of at least 2.5, more preferably at least 3.0, more preferably at least 3.5, more preferably at least 4.0, more preferably at least 5.0 and most preferably at least about 6. For example, peptides having a Can f I activity and having a mean T cell stimulation index of at least 5, as indicated by data shown in FIG. 25, include Construct 1 (SEQ ID NO: 105), Construct 2 (SEQ ID NO: 106), and Construct 3 (SEQ ID NO:107). T cell epitopes can also be predicted and determined as described above for peptides derived from Can f II.
In addition, preferred peptides have a positivity index (P.I.) of at least about 60, more preferably about 100, more preferably at least about 200 and most preferably at least about 300. The positivity index for a peptide is determined by multiplying the mean T cell stimulation index by the percent of individuals, in a population of individuals sensitive to dog dander allergens (e.g., preferably a population of at least 12 individuals, more preferably a population of at least 30 individuals or more), who have a T cell stimulation index to such peptide of at least 2.0. Thus, the positivity index represents both the strength of a T cell response to a peptide (S.I.) and the frequency of a T cell response to a peptide in a population of individuals sensitive to dog dander allergens.
In order to perform in vitro assays of human T cell proliferative response to Can f I and the five Can f I peptides described above, whole blood obtained from subjects allergic to Can f I in a skin prick test was passed through a Lymphocyte Separation Media (LSM) to remove platelets, red blood cells and granulocytes. The resulting peripheral blood mononuclear cells (PBMC) were stimulated with 50 μg/ml of recombinant Can f I produced as described in Example 2 for 6 days in RPMI 1640 medium supplemented with 5% heat inactivated human AB serum, 2 mM L-glutamine,10 mM HEPES, 50 μM 2-mercapto-ethanol and 100 U/ml penicillin and streptomycin. […]

[2] = tested on: human IgE; assay: Western blot of protein preparations probed with patient plasma IgE; assay type: binding; conditions: plasma of dog allergic patient #901, 1:20 dilution; 5 μg/lane
Experimental: Western Blot analysis of four different protein preparations as potential sources Can f I was performed. The four different prepparations used for Western blotting were: dog hair extract, dog saliva, bacterially expressed rCan f I (used for the ELISA) and rCan f I as expressed in a mammalian cell culture system. These preparations were loaded on a 15% acrylamide SDS-PAGE (lanes 1-4, respectively) at 5 μg/lane. The protein concentrations were based on the Bicinchoninic acid (BCA) assay (Pierce, Rockford, Ill.). Following electrophoresis, the proteins were transferred to nitrocellulose and stained with India Ink. The nitrocellulose sections were blocked by incubation in Tween solution with 1% milk/1% BSA for 30 minutes room temperature, then probed with patient #901 plasma or negative control patient #250 at a 1:20 dilution in tween mild solution. This first antibody incubation was carried out overnight at room temperature. Biotinylated goat anti-human IgE (KPL) was used as the second antibody at a 1:5000 dilution for a two hour incubation. Streptavidin-HRPO (1:20,000 dilution) and the ECL Western Blot Detection system (Amersham, Arlington Heights, Ill.) were used for detection by chemiluminescence. A 20 second exposure was performed and the film developed. The results from this assay show no recognition of the protein preparations by patient #250 IgE. […]

[3] = tested on: human IgE; assay: Direct binding of human IgE to recombinant Can f I by ELISA
Experimental: An ELISA plate (IMMULON II Dynatech, Chantilly, Va.) was coated with bacterially expressed recombinant Can f I, (rCan f I) at 0.5 μg/well in PBS-Tween and incubated overnight at 4° C. The coating antigen was removed and the wells were blocked with 0.5% gelatin in PBS, 200 μl/well for two hours at room temperature. Plasma from a skin test positive dog allergic patient, #901, was serially diluted with PBS-Tween and 100 μl was added per well and incubated overnight at 4° C. (the plasma dilutions were tested in duplicate). The second antibody (biotinylated goat anti-human IgE 1:1000, Kirkegaard & Perry Laboratories) was added at 100 μl/well for one hour at room temperature. This solution was removed and streptavidin-HRPO at 1:10,000, (Southern Biotecnology Associates, Inc. Birmingham, Ala.) was added for one hour at room temperature. TMB Membrane Peroxidase Substrate system (Kirkegaard & Perry Laboratories) was freshly mixed and added at 100 μl. The color was allowed to develop for 2-5 minutes. The reaction was stopped by the addition of 100 μl/well of 1M phosphoric acid. The plate was read on a Mircoplate EL 310 Autoreader (Biotek Instruments, Winooski, Vt.) with a 450 nm filter. The absorbance levels of duplicate wells were averaged. […] A known negative patient (#250) was also tested and shown to be negative by this assay.

[4] = tested on: IgE binding to dog dander extracts; conditions: RAST analysis; cited from earlier work
[5] = tested on: IgE of dog allergic patients; conditions: purified allergen; cited from earlier work
[6] = tested on: human IgE; assay: Direct binding ELISA of human IgE to native and recombinant Can f II
Experimental: Plasma samples from 14 dog-allergic patients (skin test 4+) were assayed for IgE binding to native Can f II and rCan f II. An ELISA plate (Immulon II Dynatech, Chantilly, Va.) was coated with native and bacterially expressed recombinant Can f II at 0.5 μg/well in PBS-Tween and incubated overnight at 4° C. The coating antigen was removed and the wells were blocked with 0.5% gelatin in PBS, 200 μl/well for two hours at room temperature. Binding of human IgE to the coating antigen was detected using biotinylated goat-anti-human IgE, streptavidin linked to peroxidase and TMB substrate. Reactions were read on a plate reader at 450 nm (A450). Of 14 plasma samples tested for IgE to native Can f II, 5 contained detectable antibody binding (FIG. 22A), with plasma from patients #901 and #227 containg the highest levels. Similarly, of 23 plasma samples tested for IgE to recombinant, bacterially expressed Can f II, several contained detectable antibody binding (FIGS. 22B and C).

A0095: 13 amino acid synthetic peptide, Can f I amino acids 7 through 19 (SEQ ID NO:108) (GKWYLKAMTADQE) [Construct A0095]
positivity index (mean S.I. x percent positive responders) ([1]; FIG. 10): 129
mean T cell stimulation index (S.I.) ([1]; mean of positive responses (S.I. >= 2), T cell lines from dog allergic patients primed with rCan f I, FIG. 25): 3.0
percentage of positive responders (T cell stimulation index of at least two) [1]: 43%

mammalian expressed rCan f I: recombinant Can f I expressed in a mammalian cell culture system (NIH 3T3), COOH-terminal His6
IgE binding on Western blot [2]: extremely faint

rCan f I: bacterially expressed recombinant Can f I dog allergen with His6 reporter group
IgE binding on Western blot [2]: distinct binding
IgE binding level relative to background ([3]; plasma of dog allergic patient #901 at 1/162 dilution, antigen 0.5 μg/well): two-fold above background
IgE binding, negative control patient ([3]; plasma of known negative patient #250): negative
percentage of positive responders (T cell stimulation index of at least two) [1]: 89%

Construct 1: recombinant fragment of Can f I, amino acids 1 through 65 (SEQ ID NO: 105), expressed in E. coli with His6
percentage of positive responders (T cell stimulation index of at least two) [1]: 64%

Construct 3: recombinant fragment of Can f I, amino acids 90 through 148 (SEQ ID NO: 107), expressed in E. coli
percentage of positive responders (T cell stimulation index of at least two) [1]: 82%

Construct 2: recombinant fragment of Can f I, amino acids 56 through 108 (SEQ ID NO: 106), expressed in E. coli (TVVLHKTSEPGKYTAYEGQRVVFIQPSPVRDHYILYCEGELHGRQIRMAKLLG)
percentage of positive responders (T cell stimulation index of at least two) [1]: 73%

A0096: 13 amino acid synthetic peptide, Can f I amino acids 42 through 54 (SEQ ID NO:109) (AKITMLTNGQCQN) [Construct A0096]
percentage of positive responders (T cell stimulation index of at least two) [1]: 43%

B1: Can f II: minor dog dander allergen, affinity purified native protein (de Groot et al.) (protein)
chain: EGNHEEPQGGLEELSGRWHSVALASNKSDLIKPWGHFRVFIHSMSAKDGNLHGDILIPQDGQCEKVSLTAFKTATSNKFDLEYWGHNDLYLAEVDPKSYLILYMINQYNDDTSLVAHLMVRDLSRQQDFLPAFESVCEDIGLHKDQIVVLSDDDRCQGSRD
competition with the IgE directed against dog dander extract [4]: 23%
dog allergic patients whose IgE reacts with the allergen [5]: 66%
number of plasma samples with detectable IgE antibody binding ([6]; of 14 plasma samples from dog-allergic patients (skin test 4+), FIG. 22A): 5

B2: recombinant, bacterially expressed Can f II: bacterially expressed recombinant Can f II with His6 reporter group (protein)
chain: B1 chain
modifications: left off: small tags and cut ends
notes: bacterially expressed recombinant Can f II with His6 reporter group
number of plasma samples with detectable IgE antibody binding ([6]; of 23 plasma samples, FIGS. 22B and C): several

B3: Can f I: major dog allergen of Canis familiaris; mature protein of SEQ ID NO: 2; immunoaffinity purified in cited work (protein)
chain: MKTLLLTIGFSLIAILQAQDTPALGKDTVAVSGKWYLKAMTADQEVPEKPDSVTPMILKAQKGGNLEAKITMLTNGQCQNITVVLHKTSEPGKYTAYEGQRVVFIQPSPVRDHYILYCEGELHGRQIRMAKLLGRDPEQSQEALEDFREFSRAKGLNQEILELAQSETCSPGGQ
depletion of IgE binding to dog dander extracts [4]: 50-70%

From patent US6489118B2, “Allergenic proteins and peptides from dog dander and uses therefor” (ImmuLogic Pharmaceutical Corporation, priority 1992, dated 2002)
